From patent US7838521B2, “3-oxa-10-aza-phenanthrenes” (NYCOMED GmbH, priority 2004, dated 2010)

Biological target: T1, PDE4B2 (Homo sapiens, UniProt Q07343)
T1 construct: made in house; host or cells: SF21 insect cells (baculovirus prepared in SF9 cells, pCR-Bac vector)
Experiment: Inhibition of PDE4 activity, [3H]cAMP SPA enzyme assay with recombinant PDE4B2
Type: biochemical
Settings: recombinant PDE4B2 (GB no. M97515) expressed in SF21 insect cells; 0.5 μM cAMP; 15 min at 37° C.; read-out: PDE4 Inhibition [measured as −logIC50 (mol/l)] (converted)
Procedure: Method for Measuring Inhibition of PDE4 Activities
The PDE4B2 (GB no. M97515) was a gift of Prof. M. Conti (Stanford University, USA). It was amplified from the original plasmid (pCMV5) via PCR with primers Rb9 (5′-[…]-3′) and Rb10 (5′-[…]-3′) and cloned into the pCR-Bac vector (Invitrogen, Groningen, NL).
The recombinant baculovirus was prepared by means of homologous recombination in SF9 insect cells. The expression plasmids were co-transfected with Bac-N-Blue (Invitrogen, Groningen, NL) or BaculoGold DNA (Pharmingen, Hamburg) using a standard protocol (Pharmingen, Hamburg). Wt virus-free recombinant virus supernatants were selected using plaque assay methods. After that, high-titre virus supernatants were prepared by amplifying 3 times. PDE4B2 was expressed in SF21 cells by infecting 2×10^6 cells/ml with an MOI (multiplicity of infection) between 1 and 10 in serum-free SF900 medium (Life Technologies, Paisley, UK). The cells were cultured at 28° C. for 48-72 hours, after which they were pelleted for 5-10 min at 1000 g and 4° C.
The SF21 insect cells were resuspended, at a concentration of approx. 10^7 cells/ml, in ice-cold (4° C.) homogenization buffer (20 mM Tris, pH 8.2, containing the following additions: 140 mM NaCl, 3.8 mM KCl, 1 mM EGTA, 1 mM MgCl2, 10 mM p-mercaptoethanol, 2 mM benzamidine, 0.4 mM Pefablock, 10 μM leupeptin, 10 μM pepstatin A, 5 μM trypsin inhibitor) and disrupted by ultrasonication. The homogenate was then centrifuged for 10 min at 1000×g and the supernatant was stored at 80° C. until subsequent use (see below). The protein content was determined by the Bradford method (BioRad, Munich) using BSA as the standard.
PDE4B2 activity was inhibited by the said compounds in a modified SPA (scintillation proximity assay) test, supplied by Amersham Biosciences (see procedural instructions “phosphodiesterase [3H]cAMP SPA enzyme assay, code TRKQ 7090”), carried out in 96-well microtitre plates (MTP's). The test volume is 100 μl and contains 20 mM Tris buffer (pH 7.4), 0.1 mg of BSA (bovine serum albumin)/ml, 5 mM Mg^2+, 0.5 μM cAMP (including about 50,000 cpm of [3H]cAMP), 1 μl of the respective substance dilution in DMSO and sufficient recombinant PDE (1000×g supernatant, see above) to ensure that 10-20% of the cAMP is converted under the said experimental conditions. […] After a preincubation of 5 min at 37° C., the reaction is started by adding the substrate (cAMP) and the assays are incubated for a further 15 min; after that, they are stopped by adding SPA beads (50 μl). In accordance with the manufacturer's instructions, the SPA beads had previously been resuspended in water, but were then diluted 1:3 (v/v) in water; the diluted solution also contains 3 mM IBMX to ensure a complete PDE activity stop. After the beads have been sedimented (>30 min), the MTP's are analyzed in commercially available […] detection devices. The corresponding IC50 values of the compounds for the inhibition of PDE activities are determined from the concentration-effect curves by means of non-linear regression.
The inhibitory values determined for the compounds according to the invention follow from the following Table 1, in which the numbers of the compounds correspond to the numbers of the examples.

T1 sequence (Q07343 1-564 isoform Q07343-2): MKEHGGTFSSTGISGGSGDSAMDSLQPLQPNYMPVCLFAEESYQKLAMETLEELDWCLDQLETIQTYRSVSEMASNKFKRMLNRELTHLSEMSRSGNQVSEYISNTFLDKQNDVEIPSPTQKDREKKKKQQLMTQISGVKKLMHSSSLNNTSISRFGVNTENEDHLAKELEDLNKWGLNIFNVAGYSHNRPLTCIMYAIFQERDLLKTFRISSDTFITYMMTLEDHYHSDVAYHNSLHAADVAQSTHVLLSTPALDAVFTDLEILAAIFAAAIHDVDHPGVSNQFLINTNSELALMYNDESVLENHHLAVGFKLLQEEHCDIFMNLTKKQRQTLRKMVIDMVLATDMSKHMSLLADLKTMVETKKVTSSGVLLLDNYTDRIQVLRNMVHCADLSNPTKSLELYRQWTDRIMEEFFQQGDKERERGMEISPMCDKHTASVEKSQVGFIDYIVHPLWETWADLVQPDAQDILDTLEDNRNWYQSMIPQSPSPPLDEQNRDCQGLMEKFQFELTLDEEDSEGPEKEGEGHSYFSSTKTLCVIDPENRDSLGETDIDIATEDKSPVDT

Point of comparison: CCOc1cc2c(cc1OC)C(c1ccc(C(=O)OC)cc1)=N[C@@H]1CCOC[C@H]21 [Compound 2, 4-((4aR,10aR)-6-Ethoxy-7-methoxy-1,4,4a,10a-tetrahydro-2H-3-oxa-10-aza-phenanthren-9-yl)-benzoic acid methyl ester], IC50 20 nM. Against it:
- CCOc1cc2c(cc1OC)C(c1ccc(C(=O)O)cc1)=N[C@@H]1CCOC[C@H]21 [Compound 3, 4-((4aR,10aR)-6-Ethoxy-7-methoxy-1,4,4a,10a-tetrahydro-2H-3-oxa-10-aza-phenanthren-9-yl)-benzoic acid] — 1.7-fold higher, 33.9 nM
- CCOc1cc2c(cc1OC)C(c1ccc(C(=O)N3CCN(C)CC3)cc1)=N[C@@H]1CCOC[C@H]21 [Compound 6, 1-[4-((4aR,10aR)-6-Ethoxy-7-methoxy-1,4,4a,10a-tetrahydro-2H-3oxa-10-aza-phenanthren-9-yl)-phenyl-]1-(4-methyl-piperazin-1-yl)-methanone] — within 1.5-fold, 20.4 nM
- CCOc1cc2c(cc1OC)C(c1ccc(C(=O)N(C(C)C)C(C)C)cc1)=N[C@@H]1CCOC[C@H]21 [Compound 1, 4-((4aR,10aR)-6-Ethoxy-7-methoxy-1,4,4a,10a-tetrahydro-2H-3-oxa-10-aza-phenanthren-9-yl)-N,N-diisopropyl-benzamide] — 7.3-fold lower, 2.75 nM
- CCOc1cc2c(cc1OC)C(c1ccc(C(=O)N3CCOCC3)cc1)=N[C@@H]1CCOC[C@H]21 [Compound 4, 1-[4((4aR,10aR)-6-Ethoxy-7-methoxy-1,4,4a,10a-tetrahydro-2H-3oxa-10-aza-phenanthren-9-yl)-phenyl]-1-morpholin-4-yl-methanone] — 2-fold higher, 39.8 nM
- CCOc1cc2c(cc1OC)C(c1ccc(C(=O)N(C)C)cc1)=N[C@@H]1CCOC[C@H]21 [Compound 5, 1-[4-((4aR,10aR)-6-Ethoxy-7-methoxy-1,4,4a,10a-tetrahydro-2H-3-oxa-10-aza-phenanthren-9-yl)]-N,N-dimethyl-benzamide] — 2.9-fold higher, 57.5 nM
